Test system: HUVEC/MSC spheroids viability
Experiment: Human HUVEC/MSC cell line growth inhibition [KRAS2];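 as to viability, T/C: percent of DMSO vehicle control luminescence so 100% = untreated viability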
Conditions: for IC50: curve of first compound; for viability, T/C: stronger effect = lower value
Summary of the method: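 Spheroids of human HUVEC plus MSCs, without tumor cells, were treated with single agents and combinations. Each drug was tested in half-log steps down from near its clinical Cmax, or from 10 microM when Cmax was unknown. HUVEC and hMSC were used at passage </=5.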

`CC(=O)Nc1cccc(-n2c(=O)n(C3CC3)c(=O)c3c(Nc4ccc(I)cc4F)n(C)c(=O)c(C)c32)c1` + C=CC(=O)N1CCN(c2nc(OCC3CCCN3C)nc3c2CCN(c2cccc4cccc(C)c24)C3)CC1CC#N gave an IC50 (second compound 0.00949 µM) of 18.9 nM, an IC50 (second compound 0.03 µM) of 17.3 nM and an IC50 (second compound 0.0949 µM) of 15.4 nM. The IC50 (second compound 0.3 µM) was 13.4 nM, the IC50 (second compound 0.949 µM) was 15.3 nM and the IC50 (second compound 3 µM) was 1.85 nM. It also gave a viability, T/C (second compound 0.00949 µM, first compound 94.9 pM) of 95.3%, a viability, T/C (second compound 0.00949 µM, first compound 0.0003 µM) of 129% and a viability, T/C (second compound 0.00949 µM, first compound 0.000949 µM) of 125%. For the same compound, the viability, T/C (second compound 0.00949 µM, first compound 0.003 µM) was 116%, the viability, T/C (second compound 0.00949 µM, first compound 0.00949 µM) was 90.5% and the viability, T/C (second compound 0.00949 µM, first compound 0.03 µM) was 23%. It also gave a viability, T/C (second compound 0.03 µM, first compound 94.9 pM) of 104%, a viability, T/C (second compound 0.03 µM, first compound 0.0003 µM) of 116% and a viability, T/C (second compound 0.03 µM, first compound 0.000949 µM) of 112%. It also gave a viability, T/C (second compound 0.03 µM, first compound 0.003 µM) of 115%, a viability, T/C (second compound 0.03 µM, first compound 0.00949 µM) of 83.8% and a viability, T/C (second compound 0.03 µM, first compound 0.03 µM) of 18.9%. The viability, T/C (second compound 0.0949 µM, first compound 94.9 pM) was 97.7%, the viability, T/C (second compound 0.0949 µM, first compound 0.0003 µM) was 130% and the viability, T/C (second compound 0.0949 µM, first compound 0.000949 µM) was 133%. The viability, T/C (second compound 0.0949 µM, first compound 0.003 µM) was 94.9%, the viability, T/C (second compound 0.0949 µM, first compound 0.00949 µM) was 71.5% and the viability, T/C (second compound 0.0949 µM, first compound 0.03 µM) was 23.5%. For the same compound, the viability, T/C (second compound 0.3 µM, first compound 94.9 pM) was 67%, the viability, T/C (second compound 0.3 µM, first compound 0.0003 µM) was 98.3% and the viability, T/C (second compound 0.3 µM, first compound 0.000949 µM) was 114%. It also gave a viability, T/C (second compound 0.3 µM, first compound 0.003 µM) of 97.8%, a viability, T/C (second compound 0.3 µM, first compound 0.00949 µM) of 63.6% and a viability, T/C (second compound 0.3 µM, first compound 0.03 µM) of 18.6%. For the same compound, the viability, T/C (second compound 0.949 µM, first compound 94.9 pM) was 84.9%, the viability, T/C (second compound 0.949 µM, first compound 0.0003 µM) was 91.8% and the viability, T/C (second compound 0.949 µM, first compound 0.000949 µM) was 108%. It also gave a viability, T/C (second compound 0.949 µM, first compound 0.003 µM) of 86.7%, a viability, T/C (second compound 0.949 µM, first compound 0.00949 µM) of 73.4% and a viability, T/C (second compound 0.949 µM, first compound 0.03 µM) of 17.2%. The viability, T/C (second compound 3 µM, first compound 94.9 pM) was 96.2%, the viability, T/C (second compound 3 µM, first compound 0.0003 µM) was 105% and the viability, T/C (second compound 3 µM, first compound 0.000949 µM) was 73.8%. The viability, T/C (second compound 3 µM, first compound 0.003 µM) was 32.6%, the viability, T/C (second compound 3 µM, first compound 0.00949 µM) was 2.04% and the viability, T/C (second compound 3 µM, first compound 0.03 µM) was 1.27%.
Work on `CC(C)NCC(C(=O)N1CCN(c2ncnc3c2C(C)CC3O)CC1)c1ccc(Cl)cc1` (stereo unspecified) + CNCc1ccccc1-c1csc(C(C)Nc2nc(C)nc3cc(OC)c(OC)cc23)c1 yielded an IC50 (second compound 0.0316 µM) greater than 10000 nM, an IC50 (second compound 0.1 µM) greater than 10000 nM and an IC50 (second compound 0.316 µM) greater than 10000 nM. It also gave an IC50 (second compound 1 µM) greater than 10000 nM, an IC50 (second compound 3.16 µM) greater than 10000 nM and an IC50 (second compound 10 µM) of less than 31.6 nM. The viability, T/C (second compound 0.0316 µM, first compound 0.0316 µM) was 95.5%, the viability, T/C (second compound 0.0316 µM, first compound 0.1 µM) was 108% and the viability, T/C (second compound 0.0316 µM, first compound 0.316 µM) was 98.5%. It also gave a viability, T/C (second compound 0.0316 µM, first compound 1 µM) of 70.2%, a viability, T/C (second compound 0.0316 µM, first compound 3.16 µM) of 69% and a viability, T/C (second compound 0.0316 µM, first compound 10 µM) of 64.2%. For the same compound, the viability, T/C (second compound 0.1 µM, first compound 0.0316 µM) was 94.8%, the viability, T/C (second compound 0.1 µM, first compound 0.1 µM) was 97.8% and the viability, T/C (second compound 0.1 µM, first compound 0.316 µM) was 75.6%. It also gave a viability, T/C (second compound 0.1 µM, first compound 1 µM) of 70.4%, a viability, T/C (second compound 0.1 µM, first compound 3.16 µM) of 58.1% and a viability, T/C (second compound 0.1 µM, first compound 10 µM) of 54.1%. It also gave a viability, T/C (second compound 0.316 µM, first compound 0.0316 µM) of 82.2%, a viability, T/C (second compound 0.316 µM, first compound 0.1 µM) of 106% and a viability, T/C (second compound 0.316 µM, first compound 0.316 µM) of 83.3%. For the same compound, the viability, T/C (second compound 0.316 µM, first compound 1 µM) was 73.5%, the viability, T/C (second compound 0.316 µM, first compound 3.16 µM) was 56.2% and the viability, T/C (second compound 0.316 µM, first compound 10 µM) was 50.8%. The viability, T/C (second compound 1 µM, first compound 0.0316 µM) was 84.6%, the viability, T/C (second compound 1 µM, first compound 0.1 µM) was 106% and the viability, T/C (second compound 1 µM, first compound 0.316 µM) was 103%. The viability, T/C (second compound 1 µM, first compound 1 µM) was 71.3%, the viability, T/C (second compound 1 µM, first compound 3.16 µM) was 56.5% and the viability, T/C (second compound 1 µM, first compound 10 µM) was 51.6%. For the same compound, the viability, T/C (second compound 3.16 µM, first compound 0.0316 µM) was 108%, the viability, T/C (second compound 3.16 µM, first compound 0.1 µM) was 93.2% and the viability, T/C (second compound 3.16 µM, first compound 0.316 µM) was 89.4%. The viability, T/C (second compound 3.16 µM, first compound 1 µM) was 79.5%, the viability, T/C (second compound 3.16 µM, first compound 3.16 µM) was 62.5% and the viability, T/C (second compound 3.16 µM, first compound 10 µM) was 57.7%. The viability, T/C (second compound 10 µM, first compound 0.0316 µM) was 0.38%, the viability, T/C (second compound 10 µM, first compound 0.1 µM) was 0.44% and the viability, T/C (second compound 10 µM, first compound 0.316 µM) was 0.45%. For the same compound, the viability, T/C (second compound 10 µM, first compound 1 µM) was 0.42%, the viability, T/C (second compound 10 µM, first compound 3.16 µM) was 0.39% and the viability, T/C (second compound 10 µM, first compound 10 µM) was 0.26%.
`CC(=O)Nc1cccc(-n2c(=O)n(C3CC3)c(=O)c3c(Nc4ccc(I)cc4F)n(C)c(=O)c(C)c32)c1` + CNCc1ccccc1-c1csc(C(C)Nc2nc(C)nc3cc(OC)c(OC)cc23)c1 was tested, and the IC50 (second compound 0.0316 µM) was 12.5 nM, the IC50 (second compound 0.1 µM) was 12.1 nM and the IC50 (second compound 0.316 µM) was 13.2 nM. The IC50 (second compound 1 µM) was 13.1 nM, the IC50 (second compound 3.16 µM) was 13.2 nM and the IC50 (second compound 10 µM) was less than 0.0949 nM. For the same compound, the viability, T/C (second compound 0.0316 µM, first compound 94.9 pM) was 101%, the viability, T/C (second compound 0.0316 µM, first compound 0.0003 µM) was 130% and the viability, T/C (second compound 0.0316 µM, first compound 0.000949 µM) was 113%. The viability, T/C (second compound 0.0316 µM, first compound 0.003 µM) was 83.6%, the viability, T/C (second compound 0.0316 µM, first compound 0.00949 µM) was 66.7% and the viability, T/C (second compound 0.0316 µM, first compound 0.03 µM) was 9.37%. The viability, T/C (second compound 0.1 µM, first compound 94.9 pM) was 102%, the viability, T/C (second compound 0.1 µM, first compound 0.0003 µM) was 109% and the viability, T/C (second compound 0.1 µM, first compound 0.000949 µM) was 95.5%. For the same compound, the viability, T/C (second compound 0.1 µM, first compound 0.003 µM) was 75.7%, the viability, T/C (second compound 0.1 µM, first compound 0.00949 µM) was 67% and the viability, T/C (second compound 0.1 µM, first compound 0.03 µM) was 9.94%. It also gave a viability, T/C (second compound 0.316 µM, first compound 94.9 pM) of 93.6%, a viability, T/C (second compound 0.316 µM, first compound 0.0003 µM) of 99.6% and a viability, T/C (second compound 0.316 µM, first compound 0.000949 µM) of 101%. For the same compound, the viability, T/C (second compound 0.316 µM, first compound 0.003 µM) was 85.9%, the viability, T/C (second compound 0.316 µM, first compound 0.00949 µM) was 65.4% and the viability, T/C (second compound 0.316 µM, first compound 0.03 µM) was 13.4%. For the same compound, the viability, T/C (second compound 1 µM, first compound 94.9 pM) was 86.5%, the viability, T/C (second compound 1 µM, first compound 0.0003 µM) was 103% and the viability, T/C (second compound 1 µM, first compound 0.000949 µM) was 92.2%. For the same compound, the viability, T/C (second compound 1 µM, first compound 0.003 µM) was 84.6%, the viability, T/C (second compound 1 µM, first compound 0.00949 µM) was 67.2% and the viability, T/C (second compound 1 µM, first compound 0.03 µM) was 7.22%. It also gave a viability, T/C (second compound 3.16 µM, first compound 94.9 pM) of 84.5%, a viability, T/C (second compound 3.16 µM, first compound 0.0003 µM) of 132% and a viability, T/C (second compound 3.16 µM, first compound 0.000949 µM) of 103%. The viability, T/C (second compound 3.16 µM, first compound 0.003 µM) was 103%, the viability, T/C (second compound 3.16 µM, first compound 0.00949 µM) was 70.2% and the viability, T/C (second compound 3.16 µM, first compound 0.03 µM) was 0.49%. It also gave a viability, T/C (second compound 10 µM, first compound 94.9 pM) of 0.38%, a viability, T/C (second compound 10 µM, first compound 0.0003 µM) of 0.41% and a viability, T/C (second compound 10 µM, first compound 0.000949 µM) of 0.37%. It also gave a viability, T/C (second compound 10 µM, first compound 0.003 µM) of 0.33%, a viability, T/C (second compound 10 µM, first compound 0.00949 µM) of 0.36% and a viability, T/C (second compound 10 µM, first compound 0.03 µM) of 0.28%.
